Each structure is given as a SMILES string.

This data set in a line: gradient 5% acetonitrile 3 min, to 50% in 2 min, to 85% in 15 min, held 3 min, 100 µL/min. The conditions noted are these: column: Zorbax Extend-C18 2.1 x 50 mm; eluents: water / acetonitrile, 0.1% formic acid. Summed up: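 In both positive and negative ionization mode, a quadrupole time-of-flight mass spectrometer coupled to HPLC analyzed pure standards run in mixtures of ~100 molecules. The Zorbax Extend-C18 column (2.1 × 50 mm, 1.8 μm) was operated at 100 μL/min with water and acetonitrile, each containing 0.1% formic acid. The dead volume was 40 μL and the dwell volume 900 μL. Retention time came from adduct peaks that were computationally picked and individually inspected by hand.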
Compound `CCOC(=O)c1nc(NCCN(C)Cc2ccccc2)c2c(C)noc2n1` had an RP-LC retention time of 623 s.
The result for `CC(C)CCNC(=O)c1ccc2c(=O)n(-c3ccc(F)cc3)c(N3CCCC3)nc2c1` reads 912 s; that for `COc1ccccc1CN1CC(=O)N(c2cccc(C)c2)[C@@H]2CS(=O)(=O)C[C@@H]21`, 819 s; that for `CN1c2ccccc2C(=O)NC12CCN(C(=O)c1ccccc1)CC2`, 700 s.
The result for `CC(C)(C)NC(=O)N1CCCCC1c1nncn1-c1ccccc1` (stereo not given) reads 712 s.
The result for `Cc1cnc(C2CCC2)n1CC1CCN(C(=O)C2(c3ccccc3)CC2)CC1` reads 592 s.
In turn, `COc1ccc(OC)c(CNC(=O)C2CCCN(c3ccc(=O)n(-c4cccc(F)c4)n3)C2)c1` (stereo not given) returned an RP-LC retention time of 827 s.
The result for `O=C(c1ccc(CS(=O)(=O)c2cccc(C(F)(F)F)c2)o1)N1CCN(c2ccccn2)CC1` reads 645 s; that for `CCC(=O)N1CCC(Oc2nccnc2N(C)C)C1` (stereo not given), 616 s; that for `CCCCNC(=O)c1ccc2nc(CCc3ccc(NC(=O)CC)cc3)[nH]c2c1`, 570 s.
The figure for `COc1ccc(N2CC(c3nc(-c4ccc(C)cc4)no3)CC2=O)cc1OC` (stereo not given) is 866 s.
The result for `CCOC(=O)c1c(C)[nH]c(C(=O)N2CCC(C(C)C(=O)N3CCN(c4ccccc4)CC3)CC2)c1C` (stereo not given) reads 871 s; that for `COc1ccccc1-c1nnc(-c2cc(S(=O)(=O)N3CCCC3)ccc2Cl)o1`, 951 s; that for `Fc1ccc(OCc2nnc3sc(COc4ccccc4)nn23)cc1`, 938 s.
For `Cc1ccc(NC(=O)N2CCC(OC3CCN(S(C)(=O)=O)CC3)CC2)c(C)c1`, the RP-LC retention time worked out at 743 s.
The result for `COc1ccc(S(=O)(=O)N2CCC(n3cnnc3C)CC2)cc1Cl` reads 694 s.
In the case of `COC(=O)c1ccc(C(=O)Nc2cccc3c(OC)cccc23)cc1`, the RP-LC retention time was determined as 821 s.
The result for `O=C(O)c1cc2cc(Cc3cccnc3)ccc2o1` reads 592 s; that for `Cn1nc(C(=O)Nc2cccc3nsnc23)ccc1=O`, 723 s; that for `CC(=O)c1cccc(NC(=O)N2CCc3nc[nH]c3C2)c1`, 556 s.
The figure for `Cc1ccc(S(=O)(=O)N2CCCC(CCC(=O)O)C2)cc1` (stereo not given) is 812 s; for `Cc1ccc(N2C(=O)CN(Cc3ccco3)[C@H]3CS(=O)(=O)C[C@H]32)cc1` it is 737 s.
The result for `CN1C(=O)c2cc(C(=O)NCCC3=CCCCC3)nn2CC1(C)C(=O)NCc1ccc(F)cc1` (stereo not given) reads 811 s; that for `CN(C)C[C@@H]1CN(c2ccccn2)C[C@H]1NC(=O)c1ccc2ccccc2n1`, 567 s; that for `CCCS(=O)(=O)c1nc2ccc(NS(=O)(=O)c3cccc(F)c3)cc2s1`, 918 s.
Compound `O=C(NC1CCCCCC1)C1CCN(c2cn[nH]c(=O)c2)C1` (stereo not given) returned an RP-LC retention time of 652 s.
The result for `O=S(=O)(NCC(O)(c1ccccc1)C(F)(F)F)c1ccc(F)c(Cl)c1` (stereo not given) reads 922 s.
The result for `COc1ccc(N2CCN(c3cc(SCC(=O)Nc4ccc5c(c4)OCO5)ncn3)CC2)cc1` reads 900 s; that for `Cc1ccn(-c2ccc(N3CCN(C(=O)c4c(F)cccc4Cl)CC3)nn2)n1`, 752 s.
`COc1ccc(C2(C)NC(=O)N(CC(=O)N3CCc4ccccc43)C2=O)cc1` (stereo not given) registered an RP-LC retention time of 750 s.
The result for `CCCCN1CCN(Cc2nc(-c3ccc(N4CCC(C)CC4)nc3)no2)CC1` reads 644 s; that for `O=C(c1csc(N2CCN(c3ccc(F)cc3)CC2)n1)N1CCCC1`, 963 s; that for `CCS(=O)(=O)c1ccc2c(c1)N(Cc1nc(-c3ccc(C)cc3)no1)C(=O)CO2`, 945 s.
The figure for `CC(C)NC(=O)c1ccc(OCC2CCCN2C(=O)c2ccco2)cc1` (stereo not given) is 757 s.
The compound `CCN(CC)c1nc2ccsc2c(=O)n1CC(=O)NCc1ccc(Cl)cc1` showed an RP-LC retention time of 908 s.
Compound `CC(C)N1C(=O)c2cccnc2Sc2cc(NC(=O)c3cccnc3)ccc21` registered an RP-LC retention time of 662 s.
For the compound `Cc1cccc(NC(=O)C2CC(=O)N(c3n[nH]c4cccc(F)c34)C2)c1C` (stereo not given), the RP-LC retention time came out at 770 s.
With `Cn1nc(CNC(=O)c2cccc(Cl)c2)c2ccccc21`, the RP-LC retention time turned out to be 938 s.
The figure for `CNC(=O)C1CCN(c2nc3ncn(CC(=O)NC(C)C)c(=O)c3s2)CC1` is 570 s; for `CCN1CCN(CCCNC(=O)c2nnc(-c3ccc(S(=O)(=O)N4CCCC4)cc3)o2)CC1` it is 581 s.
The figure for `COc1nn(C)cc1C(=O)NCC(=O)NCCOc1ccc(F)cc1` is 626 s.
The result for `CCCCC(C)C(=O)NC1CCN(C2=NS(=O)(=O)C(c3ccc(C)cc3)=C2C)CC1` (stereo not given) reads 935 s; that for `Cn1c(C(=O)NCc2ccccn2)cc2c(=O)oc3ccccc3c21`, 607 s; that for `COCC(=O)N1CC(c2nnc(C(C)C)o2)C2(CCOCC2)C1` (stereo not given), 577 s.
In turn, `Cc1ccc(NC(=O)N2CCN(c3ccc(=O)n(-c4ccccc4)n3)CC2)cc1` displayed an RP-LC retention time of 674 s.
The figure for `COc1ccc(OC)c(CNC(=O)c2ccc(-c3cncnc3)nc2)c1` is 700 s; for `COc1ccc(CCS(=O)(=O)N(Cc2ccsc2)C2CC2)cc1` it is 1000 s; for `COc1ccc(CNC(=O)Cn2nc3cc(C)nc(-c4ccccc4)n3c2=O)cc1` it is 752 s.
The figure for `Fc1ccc(-c2nn3c(CSc4ccccc4)nnc3s2)cc1` is 967 s; for `Cc1nc(Nc2ncc(C(=O)Nc3c(C)cccc3Cl)s2)cc(N2CCN(CCO)CC2)n1` it is 682 s; for `Cc1cc(Cl)ccc1S(=O)(=O)N(C)C1CCc2nn(CC3CC3)c(=O)n2CC1` (stereo not given) it is 772 s.
In turn, `CCCCOc1ccc(NC(=O)c2cc(=O)c3cc(Br)ccc3o2)c2cccnc12` gave an RP-LC retention time of 811 s.
The figure for `CCOc1ccccc1NC(=O)c1ccc(=O)n(Cc2ccccc2)n1` is 980 s.
The result for `CCOc1ccc(N2CC(C#N)=C3c4cc(OC)c(OC)cc4CCN3C2)cc1` reads 848 s.
For `Cc1ccc2oc(C(=O)NCC(c3ccccc3)N(C)C)cc(=O)c2c1` (stereo not given), the RP-LC retention time worked out at 619 s.
In turn, `CCOc1cccc(-c2noc(Cn3c(=O)n(CCCOC)c(=O)c4ccccc43)n2)c1` showed an RP-LC retention time of 1040 s.
The result for `Cc1nn(-c2ccc(C(=O)N3CCN(C)CC3)cc2)c2c1C(=O)CC(C)(C)C2` reads 593 s.
The result for `CCCNC(=O)c1cnn(-c2ccc(-c3nc(C(C)C)no3)cn2)c1C` reads 907 s; that for `Cc1ccc(Nc2cc(-n3ccnc3)ncn2)cc1C`, 671 s.
The result for `CCOC(=O)C1CCN(S(=O)(=O)c2cc(-c3nc(C(C)(C)C)cs3)cs2)CC1` reads 1310 s.
Consider `CN1C(=O)c2cc(C(=O)NCc3ccccc3)nn2CC1(C)C(=O)NC1CCCCCC1` (stereo not given), for which the RP-LC retention time was found to be 791 s.
Regarding `O=C(Nc1ccccc1-c1cn2c(CN3CCNCC3)csc2n1)c1cnc2ccccc2n1`, the RP-LC retention time stood at 783 s.
The figure for `O=C(NCCC1=CCCCC1)c1nnc(-c2ccc(S(=O)(=O)N3CCOCC3)cc2)o1` is 984 s.
In the case of `c1ccc2c(CCNc3ncnc4nc[nH]c34)c[nH]c2c1`, the RP-LC retention time amounted to 577 s.
The result for `CCCN1CCN(c2cc(C(=O)O)c3cc(NC(=O)c4ccccc4F)ccc3n2)CC1` reads 601 s.
Regarding `Cc1cc(NC(=O)N(C)CC2CCOC2)ccc1Br` (stereo not given), the RP-LC retention time came to 798 s.
The figure for `Cc1cccc2c1ncn1c(=O)n(CC(=O)Nc3ccc4c(c3)OCCO4)nc21` is 637 s.
The result for `CC(NC(=O)c1ccc2ncnc(N3CCCCC3)c2c1)c1cccnc1` (stereo not given) reads 545 s; that for `COc1cc(C)c(C)cc1S(=O)(=O)Nc1ccc2c(c1)C(=O)NCCO2`, 678 s; that for `CCC(C)C(NC(=O)Cc1ccc(Cl)cc1)C(=O)Nc1nc2ccccc2[nH]1` (stereo not given), 785 s.
`CCNC(=O)N1CCCC(c2cccc(C(=O)NCCN3CCOCC3)c2)C1` (stereo not given): the RP-LC retention time worked out at 577 s.
The result for `O=C(c1ccco1)N1CCN(c2ccc3cc(S(=O)(=O)N4CCCC4)ccc3n2)CC1` reads 704 s; that for `Cc1cc(-c2nnc(-c3ccc(F)cc3)o2)c(C)n1CC(=O)NC1CCCCC1`, 979 s.
The result for `CCN(CC)C(=O)Nc1ccc(C)c(Cl)c1` reads 827 s; that for `COc1cccc(CN2C[C@@H]3C(=O)N(CCN4CCc5ccccc5C4)C(=O)[C@@H]3C2)c1`, 590 s.
For `O=C1Nc2cc(C(=O)N3CCN(c4cccc(Cl)c4)CC3)ccc2N2CCCCC12` (stereo not given), the RP-LC retention time amounted to 975 s.
The figure for `CN(CCCNC(=O)Cn1c(=O)c2cccn2c2ccc(F)cc21)C1CCCCC1` is 635 s.
On to `CCN(CC)C(=O)c1ccc2c(c1)N(CC(=O)N1CCOCC1)C(=O)CS2`, for which the RP-LC retention time was determined as 642 s.
The figure for `Cc1ccc(C)c(NS(=O)(=O)c2cc3n(c2)CCCNC3=O)c1` is 663 s; for `COC(=O)c1cc2c(cn1)[nH]c1ccccc12` it is 704 s.

The record behind these values is the METLIN SMRT retention time set (Domingo-Almenara et al. 2019).
